Data as given in patent publication US9801901B2, “Alginate oligomers for use in overcoming multidrug resistance in bacteria” (priority 2009, dated 2017).
Values after ≈ are worked out from the molar mass of the structure shown. Like-named read-outs stand apart in the source and are kept apart here. Marks after values point to notes of the source that are not given here.

What was measured:
[1] = system: Pseudomonas aeruginosa MDR 301 from Poland (V2); assay: MIC assay, CAMHB with alginate oligomer, no visible growth; assay type: cell-based; settings: Pseudomonas aeruginosa, Table 1, V2 MDR 301 PA, read-out: MIC
[2] = system: Klebsiella pneumoniae KP05 506 from India (V3); assay: as above; assay type: cell-based; settings: for MIC: Klebsiella pneumoniae, Table 1, V3 KP05 506, read-out: MIC
[3] = system: Acinetobacter baumannii MDR ACB from Libya (V4); assay: as above; assay type: cell-based; settings: for MIC: Acinetobacter baumannii, read-out: MIC
Excerpt: The study described in Example 1 was repeated with the following strains of bacteria and antibiotics as detailed in Tables 4, 5 and 6.
(§1) The study described in Example 1 was repeated with the following strains of Acinetobacter baumannii, antibiotics and M-block alginate oligomer in place of OligoG CF-5/20 as detailed in Table 7. The M-block oligomer is 100% M with a DPn of 15 to 18,

[4] = system: V9 (Egypt) Acinetobacter baumannii; assay: as above; assay type: cell-based; settings: Table 5, V9 MDR Acin. baum
V11 5702 (Wales) E. coli = assay: as above; assay type: cell-based; settings: Table 5, V11 MDR E.coli
V22 6056 Acinetobacter = assay: as above; assay type: cell-based, Acinetobacter lwoffii; settings: Table 5, V22 MDR Acin. lwoff
[5] = system: V23 1322 Burkholderia cepacia; assay: as above; assay type: cell-based
[6] = system: V19 non MDR Acinetobacter baumannii; assay: MIC assay, CAMHB with M-block alginate oligomer, no visible growth; assay type: cell-based; settings: Table 7, V19 non MDR Acin. baum
Excerpt: as §1

MDR Providencia stuartii = assay: MIC-assay, Mueller-Hinton broth with G-block alginate, 384-well, OD600 (Table 11); assay type: cell-based; settings: Providencia stuartii (IR57 India, V7) MDR
Excerpt: (§2) Minimum inhibitory concentration (MICs) of different antibiotics for strains of E. coli and Providencia stuartii displaying MDR phenotypes in the presence of varying concentrations of OligoCF-5/20 (0-10%). (MIC values are expressed in μg ml^−1).

[7] = system: strains of E. coli displaying MDR phenotypes; assay: as above; assay type: cell-based; settings: Escherichia coli, Escherichia coli (5702, Wales, V11) MDR
Excerpt: as §2

MDR Pseudomonas strains = assay: MIC assay of Example 1, summary over the MDR Pseudomonas strains; assay type: cell-based, Pseudomonas aeruginosa

Work on `C[C@H]1[C@H](NC(=O)/C(=N\OC(C)(C)C(=O)O)c2csc(N)n2)C(=O)N1S(=O)(=O)O` [Aztreonam] yielded an MIC ([1]; OligoCF-5/20 0G) of 64 µg/mL (≈ 147 µM), an MIC ([1]; OligoCF-5/20 +2% G) of 16 µg/mL (≈ 36.7 µM) and an MIC ([1]; OligoCF-5/20 +6% G) of 8 µg/mL (≈ 18.4 µM). The MIC ([1]; OligoCF-5/20 +10% G) was 8 µg/mL (≈ 18.4 µM), the “effectiveness in conjunction with alginate oligomers” value ([2]; Example 1, KP05 506) was “more effective” and the MIC ([2]; OligoCF-5/20 0G) was 2050 µg/mL (≈ 4700 µM). The MIC ([2]; OligoCF-5/20 +2% G) was 2050 µg/mL (≈ 4700 µM), the MIC ([2]; OligoCF-5/20 +6% G) was 512 µg/mL (≈ 1180 µM) and the MIC ([2]; OligoCF-5/20 +10% G) was 256 µg/mL (≈ 588 µM). For the same compound, the MIC ([3]; Table 1, V4 ACB (Libya), OligoCF-5/20 0G) was 1020 µg/mL (≈ 2350 µM), the MIC ([3]; Table 1, V4 ACB (Libya), OligoCF-5/20 +2% G) was 512 µg/mL (≈ 1180 µM) and the MIC ([3]; Table 1, V4 ACB (Libya), OligoCF-5/20 +6% G) was 256 µg/mL (≈ 588 µM). It also gave an MIC ([3]; Table 1, V4 ACB (Libya), OligoCF-5/20 +10% G) of 128 µg/mL (≈ 294 µM), an MIC ([3]; Table 7, V4 MDR Acin baum (Libya), M-block oligomer 0M) of 2050 µg/mL (≈ 4700 µM) and an MIC ([3]; Table 7, V4 MDR Acin baum (Libya), M-block oligomer +2% M) of 512 µg/mL (≈ 1180 µM). For the same compound, the MIC ([3]; Table 7, V4 MDR Acin baum (Libya), M-block oligomer +6% M) was 256 µg/mL (≈ 588 µM), the MIC ([3]; Table 7, V4 MDR Acin baum (Libya), M-block oligomer +10% M) was 64 µg/mL (≈ 147 µM) and the “effect in combination with alginate oligomers” value ([3]; Example 1, Acinetobacter baumannii isolate) was “more positive effect”. For the same compound, the MIC ([4]; Acinetobacter baumannii, OligoCF-5/20 0G, read-out: MIC) was > 512 µg/mL, the MIC ([4]; OligoCF-5/20 +2% G) was 512^† μg/ml and the MIC ([4]; OligoCF-5/20 +6% G) was 256^† μg/ml. The MIC ([4]; OligoCF-5/20 +10% G) was 128^† μg/ml, the MIC (V11 5702 (Wales) E. coli; Escherichia coli, OligoCF-5/20 0G, read-out: MIC) was 256 µg/mL (≈ 588 µM) and the MIC (V11 5702 (Wales) E. coli; OligoCF-5/20 +2% G) was 256 µg/mL (≈ 588 µM). For the same compound, the MIC (V11 5702 (Wales) E. coli; OligoCF-5/20 +6% G) was 256 µg/mL (≈ 588 µM), the MIC (V11 5702 (Wales) E. coli; OligoCF-5/20 +10% G) was 256 µg/mL (≈ 588 µM) and the MIC (V22 6056 Acinetobacter; Acinetobacter, OligoCF-5/20 0G, read-out: MIC) was 256 µg/mL (≈ 588 µM). For the same compound, the MIC (V22 6056 Acinetobacter; OligoCF-5/20 +2% G) was 128^† μg/ml, the MIC (V22 6056 Acinetobacter; OligoCF-5/20 +6% G) was 64^† μg/ml and the MIC (V22 6056 Acinetobacter; OligoCF-5/20 +10% G) was 32^† μg/ml. For the same compound, the MIC ([5]; Burkholderia cepacia, Table 5, V23 MDR Burk cep, OligoCF-5/20 0G, read-out: MIC) was > 512 µg/mL, the MIC ([5]; Burkholderia cepacia, Table 6, V23, Experiment 1 (18-03-10), OligoCF-5/20 0G, read-out: MIC) was > 4100 µg/mL and the MIC ([5]; Burkholderia cepacia, Table 6, V23, Experiment 2 (18-03-10), OligoCF-5/20 0G, read-out: MIC) was > 4100 µg/mL. For the same compound, the MIC ([5]; Burkholderia cepacia, Table 6, V23, Experiment 3 (19-03-10), OligoCF-5/20 0G, read-out: MIC) was > 4100 µg/mL, the MIC ([5]; Table 5, V23 MDR Burk cep, OligoCF-5/20 +2% G) was >512 µg/mL and the MIC ([5]; Table 5, V23 MDR Burk cep, OligoCF-5/20 +6% G) was 512^† μg/ml. For the same compound, the MIC ([5]; Table 5, V23 MDR Burk cep, OligoCF-5/20 +10% G) was 128^† μg/ml, the MIC ([5]; Table 6, V23, Experiment 1 (18-03-10), OligoCF-5/20 +2% G) was >4096 µg/mL and the MIC ([5]; Table 6, V23, Experiment 1 (18-03-10), OligoCF-5/20 +6% G) was 1024^† μg/ml. The MIC ([5]; Table 6, V23, Experiment 1 (18-03-10), OligoCF-5/20 +10% G) was 256^† μg/ml, the MIC ([5]; Table 6, V23, Experiment 2 (18-03-10), OligoCF-5/20 +2% G) was >4096 µg/mL and the MIC ([5]; Table 6, V23, Experiment 2 (18-03-10), OligoCF-5/20 +6% G) was 1024^† μg/ml. The MIC ([5]; Table 6, V23, Experiment 2 (18-03-10), OligoCF-5/20 +10% G) was 512^† μg/ml, the MIC ([5]; Table 6, V23, Experiment 3 (19-03-10), OligoCF-5/20 +2% G) was >4096 µg/mL and the MIC ([5]; Table 6, V23, Experiment 3 (19-03-10), OligoCF-5/20 +6% G) was 1024^† μg/ml. The MIC ([5]; Table 6, V23, Experiment 3 (19-03-10), OligoCF-5/20 +10% G) was 128^† μg/ml, the MIC ([6]; M-block oligomer 0M) was 64 µg/mL (≈ 147 µM) and the MIC ([6]; M-block oligomer +2% M) was 32 µg/mL (≈ 73.5 µM). The MIC ([6]; M-block oligomer +6% M) was 8 µg/mL (≈ 18.4 µM), the MIC ([6]; M-block oligomer +10% M) was 8 µg/mL (≈ 18.4 µM) and the MIC (MDR Providencia stuartii; G-block (OligoCF-5/20) 0%) was > 1020 µg/mL. For the same compound, the MIC (MDR Providencia stuartii; G-block (OligoCF-5/20) 2%) was > 1020 µg/mL, the MIC (MDR Providencia stuartii; G-block (OligoCF-5/20) 6%) was > 1020 µg/mL and the MIC (MDR Providencia stuartii; G-block (OligoCF-5/20) 10%) was > 1020 µg/mL. The MIC ([7]; G-block (OligoCF-5/20) 0%, read-out: MIC) was 256 µg/mL (≈ 588 µM), the MIC ([7]; G-block (OligoCF-5/20) 2%, read-out: MIC) was 256 µg/mL (≈ 588 µM) and the MIC ([7]; G-block (OligoCF-5/20) 6%) was 128 µg/mL (≈ 294 µM). For the same compound, the MIC ([7]; G-block (OligoCF-5/20) 10%, read-out: MIC) was 64 µg/mL (≈ 147 µM) and the “effectiveness when used in combination with the alginate oligomers” value (MDR Pseudomonas strains) was “more effective”.
